Key:
filamentous actin = filamentous actin (Oryctolagus cuniculus, UniProt P68135); assay: TIRF microscopy of Oregon green-labeled actin filaments with analog 10; assay type: biochemical; conditions: 1.5 μM solution
Protocol: Encouraged by the initially observed potent G-actin binding affinity of 10, we next employed time-lapse total internal reflection fluorescence (TIRF) microscopy to examine the effects of this compound on depolymerization of filamentous actin in vitro. We initially assembled individual actin filaments by elongating them from a pool of 1.0 μM Mg-ATP-actin monomers supplemented with a trace of […] Mg-ATP-actin monomers labeled with Oregon green for visualization. The resulting filaments were incubated with either a solution of buffer or a 1.5 μM solution of 10 and imaged with TIRF microscopy. […] Similar to our previous observations, the mechanism of actin depolymerization by 10 entailed formation of multiple filaments breaks, which in turn created subsequent points for actin disassembly.

F-actin in A549 cells = assay: Fluorescent visualization of F-actin in A549 cells (Alexa Fluor 488 phalloidin); assay type: cell-based, human
Protocol: The presence of the enone increased the severing efficiency of the analogs three-fold. […] We determined whether it was the depletion of actin filaments by analogs 2-5 which was responsible for the growth inhibition of A549 cells. Each of the compounds was incubated with A549 cells for 2 h at a concentration that exceeded the GI50 value by a factor of 5. The cells were then fixed, permeabilized and filamentous actin was visualized by fluorescence microscopy following Alexa Fluor 488 phalloidin staining. […] They induced depolymerization at 150 nM for bistramide A (1), 500 nM for analog 2 and 2 μM for analog 3. Analogs 4 and 5 induced depolymerization of actin only at concentrations as high as 100 μM. […] This observation was consistent with the enhanced cell-based activity of the compounds containing the C(1)-C(4) enone moiety.
Fluorescent Visualization Of F-Actin In Cells. A549 cells grown on coverslips were incubated with analogs 4-8 (100 μM) analog 3 (2 μM) or analog 2 (500 nM) or bistramide A (150 nM) in F-12K cell culture medium for 2 h, fixed with 3% formaldehyde in PBS at 25° C. for 5 min and permeabilized with 0.1% Triton X-100 at 25° C. for 10 min. After washing with PBS, coverslips were stained with Alexa Fluor 488 Phalloidin and visualized by fluorescence microscopy.

COCCC(=O)NC[C@H](O)[C@H](C)C(=O)NCCC[C@H]1O[C@@]2(CCC[C@@H](CC[C@H](C)/C=C(\C)[C@H](C)O)O2)CCC1C (stereo partly drawn) [Analog 10]
effect on F-actin filaments (filamentous actin): rapid filament disassembly
F-actin depolymerization in A549 cells (F-actin in A549 cells): depolymerized F-actin in A549 cells in a dose-dependent manner
concentration at which noticeable actin disassembly was detected (F-actin in A549 cells; A549 cells): 250 nM

From patent publication US8350062B2, “Synthesis and anticancer activity of new actin-targeting small-molecule agents” (priority 2009, dated 2013)
